The IC50 is the point on the concentration scale where inhibition reaches its midpoint. As usually defined, the GI50 is the concentration at which growth is held to half of that of the control.

Data on five compounds can be found in patent publication US20250084095A1, “Aminopyrimidine Derivatives as Cyclin-Dependent Kinase Inhibitors” (Accutar Biotechnology Inc., priority 2023, published 2025).

Test [1] has as its system Phospho-Rb (Ser807/811) in SW1573-CDK4 KO cells. Description: Phospho-Rb expression inhibition in SW1573-CDK4 KO cells quantified by in cell Western. The format is cell-based. The following applies: Homo sapiens, 24 hours, read-out: SW1573 CDK4 KO pRb IC50. As for the experimental part: (§1) Parental SW1573 cells were obtained from the American Type Culture Collection (ATCC). CDK4 or CDK6 gene in […] cells was knocked out using the CRISPR-Cas9 technology. First, gRNA complex of CDK4 or CDK6 was prepared with Alt-R CRISPR-Cas9 tracrRNA and crRNA CDK4 (5′-[…]-3′ (SEQ ID NO: 4)) or CDK6 (5′-[…]-3′ (SEQ ID NO. 5)) (IDT-Integrated DNA Technologies), and then ribonucleoprotein (RNP) complex of CDK4 or CDK6 was prepared with respective gRNA complex and Alt-R S.p. Cas9 Nuclease V3 (IDT-Integrated DNA Technologies). Next, 5×10^4/10 μL SWJ1573 cells were electroporated with the CDK4 or CDK6 RNP complex and Alt-R Cas9 Electroporation Enhancer using Neon Transfection System (Thermo Fisher). Cells were then plated in a 96-well plate to select single clones for validation of CDK4 or CDK6 knockout by western blot analysis.
(§2) MCF7 cells were obtained from American Type Culture Collection (ATCC, HTB-22). SW1573-CDK6 KO and SW1573-CDK4 KO cells were generated by the CRISPR-Cas9 technology. All cells were plated in 96-well plates (VWR #10062-900, or Corning #3904) in 90 uL culture medium at a density of 20,000 cells/well in the respective growth medium containing 10% FBS and 1% Penicillin Streptomycin, and then incubated at 37° C. overnight. The following day, the test compound was administered to the cells by using 1000× compound stock solution prepared in DMSO at various concentrations. 1000× compound stock solution was first diluted in culturing medium to 10×, then 10 uL compound medium was added to each well in the cell plates. After administration of the compound, the cells were then incubated at 37° C. for 24 hours. Upon completion, the cells were washed with PBS briefly. 150 uL/well of 4% formaldehyde was added and the plates were incubated at room temperature for 20 mins. The cells were washed with PBS briefly, and permeabilized with 150 uL/well of ice cold 100% methanol for 10 mins. The cells were washed with PBS briefly and blocked with 100 uL/well LI-COR blocking buffer for 1 hr at room temperature with gentle shaking. The cells were incubated overnight at 4° C. with 50 uL primary antibody rabbit anti-Phospho-Rb (Ser807/811) (1: 500, Cell Signaling, #8516) and anti-Rb (1:200, Santa Cruz, sc-73598) diluted in Intercept Blocking Buffer (LI-COR, #927-60001) containing 0.1% Tween 20. The next day, the cells were washed with 200 uL PBS containing 0.1% Tween 20, 5×5 mins at room temperature with gentle shaking, and incubated with 50 uL secondary antibody, IRDye® 800CW Goat anti-Rabbit IgG (1:1000, LI-COR, #926-32211) and IRDye®680RD Goat anti-Mouse IgG (1:1000, LI-COR, #926-68070), in LI-COR blocking buffer with 0.2% Tween 20 for 1 hr at room temperature with gentle shaking. The cells were washed with 200 uL PBS containing 0.1% Tween 20, 5×5 mins at room temperature with gentle shaking. The cells were washed with PBS for 5 mins. 100 uL fresh PBS was added to each well and the plates were imaged on a LI-COR Odyssey CLX plate reader.

Test [2] relates to Phospho-Rb (Ser807/811) in MCF7 cells. The experiment in a line: Phospho-Rb expression inhibition in MCF7 cells quantified by in cell Western. The format is cell-based, human. The following applies: Homo sapiens, MCF7, 24 h, 24 hours, in cell Western, read-out: MCF7 pRb IC50. The method in brief:
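MCF7 cells were seeded at 20,000/well, grown overnight, then treated 24 h at 37 °C with compound dilutions (0.1% DMSO from 1000× stocks). Fixed cells were co-stained for phospho-Rb Ser807/811 and total Rb. Near-infrared dual-channel in-cell Western imaging was the read-out.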

In test [3] the test system is Phospho-Rb (Ser807/811) in SW1573-CDK6 KO cells. The experiment in a line: Phospho-Rb expression inhibition in SW1573-CDK6 KO cells quantified by in cell Western. The format is cell-based. The following applies: Homo sapiens, 24 hours, read-out: SW1573 CDK6 KO pRb IC50. As for the experimental part: as §1, §2
For the next test, the system named is 22RV1 cells. Description: Cell growth inhibition of 22RV1 cells (CellTiter-Glo). Particulars: Homo sapiens, 22Rv1, 120 h, 5 days, CellTiter-Glo, read-out: 22RV1 Cell Growh GI50. The format is cell-based. The method in brief: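 22RV1 cells were plated in RPMI1640 with FBS (20% in one version, 10% in the other) and dosed next day at various concentrations from DMSO stocks. After 5 days at 37 °C, viability was measured by CellTiter-Glo luminescence.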
(ATP-based viability assays read luminescence as a measure of living cells.)

For `CC(C)n1c(C2CCC2(F)F)nc2c(F)cc(-c3nc(N[C@@H]4C[C@H]5CO[C@H](O5)[C@H]4O)ncc3Cl)cc21` (stereo partly drawn) [Compound 239, (1S,3R,4S,5R)-3-((5-chloro-4-(2-(2,2-difluorocyclobutyl)-4-fluoro-1-isopropyl-1H-benzo[d]imidazol-6-yl)pyrimidin-2-yl)amino)-6,8-dioxabicyclo[3.2.1]octan-4-ol], the 50% inhibitory concentration (IC50) in test [1] is 0.15 to 1 µM; in test [2] it was at most 0.04 µM; in test [3] it was at most 0.04 µM.
On to `CC(C)n1c(C2CC(F)C2)nc2c(F)cc(-c3nc(N[C@@H]4C[C@H]5CO[C@H](O5)[C@H]4O)ncc3Cl)cc21` (stereo partly drawn) [Compound 243, (1S,3R,4S,5R)-3-((5-chloro-4-(4-fluoro-2-((1r,3R)-3-fluorocyclobutyl)-1-isopropyl-1H-benzo[d]imidazol-6-yl)pyrimidin-2-yl)amino)-6,8-dioxabicyclo[3.2.1]octan-4-ol], for which the IC50 in test [1] was over 1 µM; in test [3], 0.04 to 0.15 µM.
Regarding `CC(C)n1c([C@H]2C[C@H]2C(=O)N(C)C)nc2c(F)cc(-c3nc(N[C@@H]4C[C@H]5CO[C@H](O5)[C@H]4O)ncc3Cl)cc21` [Compound 248, (1R,2S)-2-(6-(5-chloro-2-(((1S,3R,4S,5R)-4-hydroxy-6,8-dioxabicyclo[3.2.1]octan-3-yl)amino)pyrimidin-4-yl)-4-fluoro-1-isopropyl-1H-benzo[d]imidazol-2-yl)-N,N-dimethylcyclopropane-1-carboxamide], the IC50 in test [1] is over 1 µM; in test [2] it was 0.04 to 0.15 µM; in test [3] it was 0.15 to 1 µM.
For the compound `CC(C)n1c(N2C(=O)OC[C@H]2C)nc2c(F)cc(-c3nc(N[C@@H]4C[C@H]5CO[C@H](O5)[C@H]4O)ncc3Cl)cc21` [Compound 296, (R)-3-(6-(5-chloro-2-(((1S,3R,4S,5R)-4-hydroxy-6,8-dioxabicyclo[3.2.1]octan-3-yl)amino)pyrimidin-4-yl)-4-fluoro-1-isopropyl-1H-benzo[d]imidazol-2-yl)-4-methyloxazolidin-2-one], in test [2], the IC50 fell in the range of 0.15 to 1 µM. Moreover, the GI50 in the test with 22RV1 cells was 0.45 to 3 µM.
Consider `CC(C)[C@H]1COC(=O)N1c1nc2c(F)cc(-c3nc(N[C@@H]4C[C@H]5CO[C@H](O5)[C@H]4O)ncc3Cl)cc2n1C(C)C` [Compound 297, (S)-3-(6-(5-chloro-2-(((1S,3R,4S,5R)-4-hydroxy-6,8-dioxabicyclo[3.2.1]octan-3-yl)amino)pyrimidin-4-yl)-4-fluoro-1-isopropyl-1H-benzo[d]imidazol-2-yl)-4-isopropyloxazolidin-2-one], for which the half-maximal inhibitory concentration (IC50) in test [2] is 0.15 to 1 µM. In the test on 22RV1 cells, the GI50 is 0.45 to 3 µM.
